# *1 amine or outer side, *2 acyl side, *3 side chain or, on linkers, in order; H or OH if unused. Where a SMILES comes first, the peptide text is derived from it. Bridges are numbered along the chain shown (N, C = ends). [ ]: non-standard residue; d: D form. The star is where a group is joined. X5 = O=C(O)CC[C@H](N[*:1])C(=O)C1C[C@H](O)C[C@H]1C(=O)[*:2]; Pro(trans-4-F) = O=C(O)[C@@H]1C[C@@H](F)CN1; Hyp = O=C(O)[C@@H]1C[C@@H](O)CN1; NMeNle = CCCC[C@H](NC)C(=O)O; NMeA = CN[C@@H](C)C(=O)O; Orn = NCCC[C@H](N)C(=O)O; Dab = NCC[C@H](N)C(=O)O; Dap = NC[C@H](N)C(=O)O; Propionyl = CCC(=O)*
# Biological target: T1, Human PD-L1/PD-1 (Homo sapiens, UniProt Q9NZQ7)
# T1 construct: TVMV protease cleavage site (C); made in house; host or cells: HEK293T cells
# Assay: HTRF Human PD-L1/PD-1 binding assay (PD-1-Ig/PD-L1-His)
# Details: PD-L1-His 10 nM, PD-1-Ig 20 nM; class symbol; read-out: HTRF Human PD-L1/PD-1 Binding Assay IC50 Range
# Summary of the method: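 Soluble HEK293T-expressed proteins: hPD-L1-His 10 nM, hPD-1-Ig 20 nM final. Cpd + PD-L1 15 min, + PD-1 15 min, + Eu anti-Ig 1 nM/APC anti-His 20 nM 30 min. Buffer dPBS, 0.1% BSA, 0.05% Tween-20. TR-FRET 665/620.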
# T1 sequence (Q9NZQ7 with tags, fused parts or gaps): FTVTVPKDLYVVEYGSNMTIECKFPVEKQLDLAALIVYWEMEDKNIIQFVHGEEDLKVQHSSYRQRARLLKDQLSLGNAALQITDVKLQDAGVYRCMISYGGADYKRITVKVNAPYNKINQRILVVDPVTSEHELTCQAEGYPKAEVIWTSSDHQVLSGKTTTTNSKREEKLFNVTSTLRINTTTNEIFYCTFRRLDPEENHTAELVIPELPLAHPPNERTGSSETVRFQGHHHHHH
compound,measurement,value
CCCC[C@H]1C(=O)N(C)[C@@H](CCCC)C(=O)N[C@@H](CCCNC(=O)CC)C(=O)N[C@H](C(=O)NCC(N)=O)CSCC(=O)N[C@@H](Cc2ccc(OC)cc2)C(=O)N(C)[C@@H](C)C(=O)N[C@@H](CC(N)=O)C(=O)N2CCC[C@H]2C(=O)N[C@@H](CC(N)=O)C(=O)N[C@@H](CC(C)C)C(=O)N2C[C@H](F)C[C@H]2C(=O)N[C@@H](Cc2c[nH]c3ccccc23)C(=O)N[C@@H](C)C(=O)N[C@@H](Cc2c[nH]c3ccccc23)C(=O)N1C [Example 7083] ({CH2CO}-Y(Me)[NMeA]NPNL[Pro(trans-4-F)]WAW[NMeNle][NMeNle][Orn](Propionyl)CG-NH2; thioether N-14),IC50,10 to 99.9 nM
CCCC[C@H]1C(=O)N(C)[C@@H](CCCC)C(=O)N[C@@H](CCCN)C(=O)N[C@H](C(=O)NCC(N)=O)CSCC(=O)N[C@@H](Cc2ccc(OC)cc2)C(=O)N(C)[C@@H](C)C(=O)N[C@@H](CC(N)=O)C(=O)N2CCC[C@H]2C(=O)N[C@@H](CC(N)=O)C(=O)N[C@@H](CC(C)C)C(=O)N2C[C@H](F)C[C@H]2C(=O)N[C@@H](Cc2c[nH]c3ccccc23)C(=O)N[C@@H](C)C(=O)N[C@@H](Cc2c[nH]c3ccccc23)C(=O)N1C [Example 7084] ({CH2CO}-Y(Me)[NMeA]NPNL[Pro(trans-4-F)]WAW[NMeNle][NMeNle][Orn]CG-NH2; thioether N-14),IC50,1 to 9.9 nM
CCCC[C@H]1C(=O)N(C)[C@@H](CCCC)C(=O)N[C@@H](CCCNC(=N)N)C(=O)N[C@H](C(=O)NCC(N)=O)CSCC(=O)N[C@@H](Cc2ccc(OC)cc2)C(=O)N(C)[C@@H](C)C(=O)N[C@@H](CC(N)=O)C(=O)N2CCC[C@H]2C(=O)N[C@@H](Cc2cnc[nH]2)C(=O)N[C@@H](CCC(=O)O)C(=O)C2C[C@H](O)C[C@H]2C(=O)N[C@@H](Cc2c[nH]c3ccccc23)C(=O)N[C@@H](CCN)C(=O)N[C@@H](Cc2c[nH]c3ccccc23)C(=O)N1C (some centres unmarked) [Example 7085] ({CH2CO}-Y(Me)[NMeA]NPH[X5]W[Dab]W[NMeNle][NMeNle]RCG-NH2; thioether N-13),IC50,1 to 9.9 nM
CCCC[C@H]1C(=O)N(C)[C@@H](CCCC)C(=O)N[C@@H](CCCNC(=N)N)C(=O)N[C@H](C(=O)NCC(N)=O)CSCC(=O)N[C@@H](Cc2ccc(OC)cc2)C(=O)N(C)[C@@H](C)C(=O)N[C@@H](CC(N)=O)C(=O)N2CCC[C@H]2C(=O)N[C@@H](Cc2cnc[nH]2)C(=O)N[C@@H](CCC(=O)O)C(=O)N2C[C@H](O)C[C@H]2C(=O)N[C@@H](Cc2c[nH]c3ccccc23)C(=O)N[C@@H](CO)C(=O)N[C@@H](Cc2c[nH]c3ccccc23)C(=O)N1C [Example 7086] ({CH2CO}-Y(Me)[NMeA]NPHE[Hyp]WSW[NMeNle][NMeNle]RCG-NH2; thioether N-14),IC50,1 to 9.9 nM
CCCC[C@H]1C(=O)N(C)[C@@H](CCCC)C(=O)N[C@@H](CCCN)C(=O)N[C@H](C(=O)NCC(N)=O)CSCC(=O)N[C@@H](Cc2ccc(OC)cc2)C(=O)N(C)[C@@H](C)C(=O)N[C@@H](CC(N)=O)C(=O)N2CCC[C@H]2C(=O)N[C@@H](Cc2cnc[nH]2)C(=O)N[C@@H](CCC(=O)O)C(=O)C2C[C@H](O)C[C@H]2C(=O)N[C@@H](Cc2c[nH]c3ccccc23)C(=O)N[C@@H](CCN)C(=O)N[C@@H](Cc2c[nH]c3ccccc23)C(=O)N1C (some centres unmarked) [Example 7087] ({CH2CO}-Y(Me)[NMeA]NPH[X5]W[Dab]W[NMeNle][NMeNle][Orn]CG-NH2; thioether N-13),IC50,1 to 9.9 nM
CCCC[C@H]1C(=O)N(C)[C@@H](CCCC)C(=O)N[C@@H](CCCN)C(=O)N[C@H](C(=O)NCC(N)=O)CSCC(=O)N[C@@H](Cc2ccc(OC)cc2)C(=O)N(C)[C@@H](C)C(=O)N[C@@H](CC(=O)O)C(=O)N2CCC[C@H]2C(=O)N[C@@H](CN)C(=O)N[C@@H](CCCCN)C(=O)N2C[C@H](O)C[C@H]2C(=O)N[C@@H](Cc2c[nH]c3ccccc23)C(=O)N[C@@H](CCN)C(=O)N[C@@H](Cc2c[nH]c3ccccc23)C(=O)N1C [Example 7089] ({CH2CO}-Y(Me)[NMeA]DP[Dap]K[Hyp]W[Dab]W[NMeNle][NMeNle][Orn]CG-NH2; thioether N-14),IC50,1 to 9.9 nM
CCCC[C@H]1C(=O)N(C)[C@@H](CCCC)C(=O)N[C@@H](CCCN)C(=O)N[C@H](C(=O)NCC(N)=O)CSCC(=O)N[C@@H](Cc2ccc(OC)cc2)C(=O)N(C)[C@@H](C)C(=O)N[C@@H](CCN)C(=O)N2CCC[C@H]2C(=O)N[C@@H](Cc2cnc[nH]2)C(=O)N[C@@H](CCC(=O)O)C(=O)N2C[C@H](O)C[C@H]2C(=O)N[C@@H](Cc2c[nH]c3ccccc23)C(=O)N[C@@H](CCN)C(=O)N[C@@H](Cc2c[nH]c3ccccc23)C(=O)N1C [Example 7090] ({CH2CO}-Y(Me)[NMeA][Dab]PHE[Hyp]W[Dab]W[NMeNle][NMeNle][Orn]CG-NH2; thioether N-14),IC50,1 to 9.9 nM
CCCC[C@H]1C(=O)N(C)[C@@H](CCCC)C(=O)N[C@@H](CCCN)C(=O)N[C@H](C(=O)NCC(N)=O)CSCC(=O)N[C@@H](Cc2ccc(OC)cc2)C(=O)N(C)[C@@H](C)C(=O)N[C@@H](CC(N)=O)C(=O)N2CCC[C@H]2C(=O)N[C@@H](CN)C(=O)N[C@@H](CCC(=O)O)C(=O)N2C[C@H](O)C[C@H]2C(=O)N[C@@H](Cc2c[nH]c3ccccc23)C(=O)N[C@@H](CCN)C(=O)N[C@@H](Cc2c[nH]c3ccccc23)C(=O)N1C [Example 7091] ({CH2CO}-Y(Me)[NMeA]NP[Dap]E[Hyp]W[Dab]W[NMeNle][NMeNle][Orn]CG-NH2; thioether N-14),IC50,1 to 9.9 nM
CCCC[C@H]1C(=O)N(C)[C@@H](CCCC)C(=O)N[C@@H](CCCN)C(=O)N[C@H](C(=O)NCC(N)=O)CSCC(=O)N[C@@H](Cc2ccc(OC)cc2)C(=O)N(C)[C@@H](C)C(=O)N[C@@H](CCN)C(=O)N2CCC[C@H]2C(=O)N[C@@H](CN)C(=O)N[C@@H](CCC(=O)O)C(=O)N2C[C@H](O)C[C@H]2C(=O)N[C@@H](Cc2c[nH]c3ccccc23)C(=O)N[C@@H](CCN)C(=O)N[C@@H](Cc2c[nH]c3ccccc23)C(=O)N1C [Example 7092] ({CH2CO}-Y(Me)[NMeA][Dab]P[Dap]E[Hyp]W[Dab]W[NMeNle][NMeNle][Orn]CG-NH2; thioether N-14),IC50,10 to 99.9 nM
CCCC[C@H]1C(=O)N(C)[C@@H](CCCC)C(=O)N[C@@H](CCCN)C(=O)N[C@H](C(=O)NCC(N)=O)CSCC(=O)N[C@@H](Cc2ccc(OC)cc2)C(=O)N(C)[C@@H](C)C(=O)N[C@@H](CC(N)=O)C(=O)N2CCC[C@H]2C(=O)N[C@@H](Cc2cnc[nH]2)C(=O)N[C@@H](CCCCN)C(=O)N2C[C@H](O)C[C@H]2C(=O)N[C@@H](Cc2c[nH]c3ccccc23)C(=O)N[C@@H](CCN)C(=O)N[C@@H](Cc2c[nH]c3ccccc23)C(=O)N1C [Example 7093] ({CH2CO}-Y(Me)[NMeA]NPHK[Hyp]W[Dab]W[NMeNle][NMeNle][Orn]CG-NH2; thioether N-14),IC50,1 to 9.9 nM
CCCC[C@H]1C(=O)N(C)[C@@H](CCCC)C(=O)N[C@@H](CCCN)C(=O)N[C@H](C(=O)NCC(N)=O)CSCC(=O)N[C@@H](Cc2ccc(OC)cc2)C(=O)N(C)[C@@H](C)C(=O)N[C@@H](CC(=O)O)C(=O)N2CCC[C@H]2C(=O)N[C@@H](Cc2cnc[nH]2)C(=O)N[C@@H](CCCCN)C(=O)N2C[C@H](O)C[C@H]2C(=O)N[C@@H](Cc2c[nH]c3ccccc23)C(=O)N[C@@H](CCN)C(=O)N[C@@H](Cc2c[nH]c3ccccc23)C(=O)N1C [Example 7094] ({CH2CO}-Y(Me)[NMeA]DPHK[Hyp]W[Dab]W[NMeNle][NMeNle][Orn]CG-NH2; thioether N-14),IC50,1 to 9.9 nM

# Reference: US10538555B2, “Macrocyclic inhibitors of the PD-1/PD-L1 and CD80(B7-1)/PD-L1 protein/protein interactions” (BRISTOL-MYERS SQUIBB COMPANY, priority 2014, dated 2020)
